Columns and labels:
[1] = target: 5-hydroxytryptamine receptor 6 (Homo sapiens) (UniProt P50406); experiment: Inhibition of Serotonin (5-Hydroxytryptamine) 5-HT6 at 10 µM in the Eurofins-Panlabs radioligand binding assay (Eurofins_assay_272200)
[2] = target: Galanin receptor type 1 (Homo sapiens) (UniProt P47211); experiment: Galanin GAL1 Eurofins-Panlabs radioligand binding assay; conditions: Compound concentration 10.0 uM
[3] = target: Inositol 1,4,5-trisphosphate-gated calcium channel ITPR1 (Homo sapiens) (UniProt Q14643); experiment: Inositol Trisphosphate IP3 Eurofins-Panlabs radioligand binding assay; conditions: Rattus norvegicus; Compound concentration 10.0 uM
D(1B) dopamine receptor = D(1B) dopamine receptor (Homo sapiens, UniProt P21918); experiment: Dopamine D5 Eurofins-Panlabs radioligand binding assay; conditions: concentration not given here
[4] = target: Melanocortin receptor 4 (Homo sapiens) (UniProt P32245); experiment: Inhibition of Melanocortin MC4 at 10 µM in the Eurofins-Panlabs radioligand binding assay (Eurofins_assay_251350); set-up: ligand concentration 0.02 nM; conditions: Compound concentration 10.0 uM
[5] = target: Somatostatin receptor type 4 (Homo sapiens, UniProt P31391); experiment: Somatostatin sst4 Eurofins-Panlabs radioligand binding assay; set-up: ligand concentration 0.1 nM, non-specific ligand with concentration 1 µM Somatostatin-14, incubation time 45 min, incubation temperature 25 °C
Sequence of Somatostatin receptor type 4 (P31391 whole entry): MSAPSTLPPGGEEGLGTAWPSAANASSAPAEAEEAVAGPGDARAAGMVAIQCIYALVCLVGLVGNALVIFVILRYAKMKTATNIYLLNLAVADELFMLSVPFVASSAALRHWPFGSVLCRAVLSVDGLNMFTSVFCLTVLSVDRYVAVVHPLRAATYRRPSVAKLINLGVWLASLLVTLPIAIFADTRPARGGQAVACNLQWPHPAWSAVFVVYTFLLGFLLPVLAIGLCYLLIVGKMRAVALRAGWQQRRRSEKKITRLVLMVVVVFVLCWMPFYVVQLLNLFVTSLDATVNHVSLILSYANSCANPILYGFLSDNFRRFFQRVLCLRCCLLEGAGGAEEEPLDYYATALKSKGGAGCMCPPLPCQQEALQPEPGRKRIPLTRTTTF

Sequence of D(1B) dopamine receptor (P21918 whole entry): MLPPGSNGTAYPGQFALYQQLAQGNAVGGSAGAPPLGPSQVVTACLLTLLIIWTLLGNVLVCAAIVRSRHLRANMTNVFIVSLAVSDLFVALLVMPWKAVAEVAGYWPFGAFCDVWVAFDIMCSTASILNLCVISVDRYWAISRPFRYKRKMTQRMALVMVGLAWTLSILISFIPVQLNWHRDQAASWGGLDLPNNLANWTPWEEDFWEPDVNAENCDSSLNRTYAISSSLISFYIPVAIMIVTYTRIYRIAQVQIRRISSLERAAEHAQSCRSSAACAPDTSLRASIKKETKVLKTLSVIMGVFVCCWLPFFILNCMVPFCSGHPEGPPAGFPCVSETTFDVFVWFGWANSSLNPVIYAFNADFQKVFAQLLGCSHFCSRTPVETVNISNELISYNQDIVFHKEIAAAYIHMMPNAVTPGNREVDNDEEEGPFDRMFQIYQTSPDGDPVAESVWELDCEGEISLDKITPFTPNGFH
Sequence of Inositol 1,4,5-trisphosphate-gated calcium channel ITPR1 (Homo sapiens) (Q14643 whole entry): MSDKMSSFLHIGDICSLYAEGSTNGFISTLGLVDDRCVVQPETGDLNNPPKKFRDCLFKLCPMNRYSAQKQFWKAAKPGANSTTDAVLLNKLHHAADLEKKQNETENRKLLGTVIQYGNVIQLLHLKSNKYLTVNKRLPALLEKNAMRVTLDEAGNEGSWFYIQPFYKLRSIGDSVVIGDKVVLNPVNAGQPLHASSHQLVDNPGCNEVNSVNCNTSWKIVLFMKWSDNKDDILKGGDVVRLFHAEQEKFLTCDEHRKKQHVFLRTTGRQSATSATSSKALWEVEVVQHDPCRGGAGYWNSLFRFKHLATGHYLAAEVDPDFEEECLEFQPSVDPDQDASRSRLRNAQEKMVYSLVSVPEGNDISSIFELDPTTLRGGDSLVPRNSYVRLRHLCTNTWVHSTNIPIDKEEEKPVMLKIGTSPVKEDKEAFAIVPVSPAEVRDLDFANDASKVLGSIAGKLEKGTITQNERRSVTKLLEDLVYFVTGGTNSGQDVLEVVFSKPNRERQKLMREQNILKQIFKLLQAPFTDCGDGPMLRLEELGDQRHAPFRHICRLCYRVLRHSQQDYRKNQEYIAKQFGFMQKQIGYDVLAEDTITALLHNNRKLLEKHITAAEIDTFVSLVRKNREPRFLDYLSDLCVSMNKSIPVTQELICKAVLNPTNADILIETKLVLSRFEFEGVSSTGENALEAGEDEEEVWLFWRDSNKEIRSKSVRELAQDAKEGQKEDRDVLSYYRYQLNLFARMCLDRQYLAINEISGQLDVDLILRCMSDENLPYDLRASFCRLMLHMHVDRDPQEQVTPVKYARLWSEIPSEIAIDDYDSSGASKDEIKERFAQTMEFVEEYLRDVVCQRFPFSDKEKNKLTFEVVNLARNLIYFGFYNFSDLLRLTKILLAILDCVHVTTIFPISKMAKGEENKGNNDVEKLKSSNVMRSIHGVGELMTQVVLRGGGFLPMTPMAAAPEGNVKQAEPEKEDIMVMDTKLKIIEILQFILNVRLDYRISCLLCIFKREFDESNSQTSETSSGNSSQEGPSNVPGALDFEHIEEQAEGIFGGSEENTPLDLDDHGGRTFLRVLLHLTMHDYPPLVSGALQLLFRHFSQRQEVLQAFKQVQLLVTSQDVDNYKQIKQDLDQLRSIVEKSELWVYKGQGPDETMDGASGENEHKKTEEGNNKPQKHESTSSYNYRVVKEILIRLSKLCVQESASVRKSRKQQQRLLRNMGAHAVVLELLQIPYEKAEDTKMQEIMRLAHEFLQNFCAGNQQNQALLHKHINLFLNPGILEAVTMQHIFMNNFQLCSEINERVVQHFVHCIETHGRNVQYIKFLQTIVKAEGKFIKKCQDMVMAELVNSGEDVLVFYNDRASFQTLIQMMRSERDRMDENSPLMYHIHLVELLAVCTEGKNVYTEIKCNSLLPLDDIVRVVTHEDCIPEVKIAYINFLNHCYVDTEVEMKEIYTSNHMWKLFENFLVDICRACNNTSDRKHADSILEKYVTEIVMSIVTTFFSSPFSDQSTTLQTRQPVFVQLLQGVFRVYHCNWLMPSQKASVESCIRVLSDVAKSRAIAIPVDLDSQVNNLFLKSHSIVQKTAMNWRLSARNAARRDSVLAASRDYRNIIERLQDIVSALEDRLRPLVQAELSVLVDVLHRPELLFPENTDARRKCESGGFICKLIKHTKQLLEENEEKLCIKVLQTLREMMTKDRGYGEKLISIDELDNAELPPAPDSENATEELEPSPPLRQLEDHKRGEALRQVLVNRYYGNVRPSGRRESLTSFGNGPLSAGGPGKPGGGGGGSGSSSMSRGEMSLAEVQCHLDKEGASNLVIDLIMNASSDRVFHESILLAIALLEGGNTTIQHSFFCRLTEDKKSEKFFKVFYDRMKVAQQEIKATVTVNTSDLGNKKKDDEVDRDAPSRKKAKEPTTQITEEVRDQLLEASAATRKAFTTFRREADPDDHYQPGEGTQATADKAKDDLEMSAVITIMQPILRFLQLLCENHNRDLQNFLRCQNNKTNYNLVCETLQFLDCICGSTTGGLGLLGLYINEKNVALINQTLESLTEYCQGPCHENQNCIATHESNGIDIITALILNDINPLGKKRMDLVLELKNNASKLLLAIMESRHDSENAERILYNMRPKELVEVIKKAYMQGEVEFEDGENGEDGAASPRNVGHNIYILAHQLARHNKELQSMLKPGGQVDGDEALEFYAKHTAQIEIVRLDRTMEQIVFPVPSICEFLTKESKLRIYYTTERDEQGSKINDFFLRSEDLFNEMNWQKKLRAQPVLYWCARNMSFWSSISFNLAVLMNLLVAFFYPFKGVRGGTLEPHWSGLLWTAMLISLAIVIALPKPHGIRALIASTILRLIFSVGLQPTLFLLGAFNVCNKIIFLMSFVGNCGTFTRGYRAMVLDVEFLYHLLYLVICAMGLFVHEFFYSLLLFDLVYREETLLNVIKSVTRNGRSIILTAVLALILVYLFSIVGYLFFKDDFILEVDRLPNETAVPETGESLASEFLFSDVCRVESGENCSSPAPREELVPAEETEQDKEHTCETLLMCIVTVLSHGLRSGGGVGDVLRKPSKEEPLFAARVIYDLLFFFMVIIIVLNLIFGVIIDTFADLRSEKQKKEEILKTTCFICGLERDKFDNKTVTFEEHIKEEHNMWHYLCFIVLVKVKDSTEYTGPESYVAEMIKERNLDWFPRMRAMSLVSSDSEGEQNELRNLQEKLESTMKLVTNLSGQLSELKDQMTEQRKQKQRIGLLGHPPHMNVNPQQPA
Sequence of 5-hydroxytryptamine receptor 6 (Homo sapiens) (P50406 whole entry): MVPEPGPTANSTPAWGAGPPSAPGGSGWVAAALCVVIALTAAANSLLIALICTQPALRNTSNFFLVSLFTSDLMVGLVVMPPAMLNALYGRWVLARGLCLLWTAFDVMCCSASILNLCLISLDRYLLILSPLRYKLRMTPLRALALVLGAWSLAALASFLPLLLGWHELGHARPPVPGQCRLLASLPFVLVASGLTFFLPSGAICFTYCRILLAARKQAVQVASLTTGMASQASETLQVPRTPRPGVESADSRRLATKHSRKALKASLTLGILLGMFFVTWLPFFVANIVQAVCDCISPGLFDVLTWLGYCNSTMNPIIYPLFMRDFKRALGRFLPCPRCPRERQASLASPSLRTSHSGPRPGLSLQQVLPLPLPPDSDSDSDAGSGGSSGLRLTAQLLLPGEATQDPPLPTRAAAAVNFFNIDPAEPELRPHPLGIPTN
Sequence of Melanocortin receptor 4 (Homo sapiens) (P32245 whole entry): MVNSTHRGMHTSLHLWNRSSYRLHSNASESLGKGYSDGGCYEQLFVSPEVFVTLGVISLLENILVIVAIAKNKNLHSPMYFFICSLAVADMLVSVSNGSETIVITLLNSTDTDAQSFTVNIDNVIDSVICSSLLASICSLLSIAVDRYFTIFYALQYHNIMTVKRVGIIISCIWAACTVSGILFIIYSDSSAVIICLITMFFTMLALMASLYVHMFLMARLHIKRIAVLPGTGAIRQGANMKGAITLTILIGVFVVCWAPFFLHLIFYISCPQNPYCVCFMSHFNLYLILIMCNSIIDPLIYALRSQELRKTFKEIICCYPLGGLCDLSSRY
Sequence of Galanin receptor type 1 (Homo sapiens) (P47211 whole entry): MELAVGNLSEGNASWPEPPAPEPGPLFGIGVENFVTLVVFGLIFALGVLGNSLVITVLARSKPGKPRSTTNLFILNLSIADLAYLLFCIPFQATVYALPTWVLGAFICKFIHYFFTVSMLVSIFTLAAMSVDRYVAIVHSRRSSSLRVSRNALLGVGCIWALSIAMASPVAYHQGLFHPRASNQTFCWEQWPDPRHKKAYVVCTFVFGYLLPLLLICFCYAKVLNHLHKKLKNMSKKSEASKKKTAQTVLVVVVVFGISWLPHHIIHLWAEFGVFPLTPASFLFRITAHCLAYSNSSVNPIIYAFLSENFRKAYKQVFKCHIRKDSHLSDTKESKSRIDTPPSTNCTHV

## O=C(O)c1cc(-c2ccc(C3CCNCC3)cc2)c2ccc(-c3ccc(C(F)(F)F)cc3)cc2c1 [PPTN]
[1]
  inhibition: 7%
[2]
  inhibition: 19%
[3]
  inhibition: 9%
D(1B) dopamine receptor
  inhibition: 7%
[4]
  inhibition: 28%
[5]
  IC50: 5.3 µM
[5]; Compound concentration 0.01 uM
  inhibition: -5%
[5]; Compound concentration 0.1 uM
  inhibition: 7%
[5]; Compound concentration 1.0 uM
  inhibition: 17%
[5]; Compound concentration 10.0 uM
  inhibition: 65%

Source: ChEMBL document CHEMBL4507292 (2021)
